Data on six molecules can be found in EP3046573B1, “AMYLIN ANALOGUES” (Zealand Pharma A/S, priority 2013, dated 2015).

In general, EC50 refers to the midpoint of the concentration-response curve.

Numbered stars: 1 amine (or outer) side, 2 acyl side, 3 side chain; on linkers, the order of the positions; unused ones are H or OH. Bridge positions count the residues as written; N and C are the ends. Square brackets hold non-standard residues; d marks the D form. Peptide text beside a SMILES is read from it. * marks the point of attachment. C20 diacid = O=C(O)CCCCCCCCCCCCCCCCCCC(=O)*; γGlu = O=C(O)[C@H](CCC(=O)[*:2])N[*:1]; NMeI = CC[C@H](C)[C@H](NC)C(=O)O; Sar = CNCC(=O)O

One assay deals with T1, human calcitonin receptor (hCTR2) (Homo sapiens, UniProt P30988).
T1 construct: expressed in transfected cells
T1 sequence (P30988 25-474): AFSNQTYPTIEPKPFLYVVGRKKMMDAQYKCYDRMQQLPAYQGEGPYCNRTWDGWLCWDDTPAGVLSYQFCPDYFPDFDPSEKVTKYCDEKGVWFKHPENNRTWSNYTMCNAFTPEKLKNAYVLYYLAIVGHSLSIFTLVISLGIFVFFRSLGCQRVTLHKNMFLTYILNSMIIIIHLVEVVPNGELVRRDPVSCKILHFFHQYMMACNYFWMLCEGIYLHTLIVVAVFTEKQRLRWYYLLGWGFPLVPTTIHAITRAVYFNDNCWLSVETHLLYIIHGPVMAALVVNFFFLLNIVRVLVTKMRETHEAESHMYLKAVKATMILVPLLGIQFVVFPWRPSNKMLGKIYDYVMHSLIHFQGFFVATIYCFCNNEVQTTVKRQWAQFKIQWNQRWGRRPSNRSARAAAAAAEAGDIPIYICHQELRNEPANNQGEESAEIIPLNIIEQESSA
Nature of the assay: hCTR2 assay: induction of cAMP (AlphaScreen cAMP Assay kit) in COS7 cells expressing hCTR2.
Conditions: not given
Type of assay: cell-based. In short, it runs like this:
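Stable RAMP-naive COS7 clone expressing hCTR2 was stimulated with increasing peptide concentrations in Tyrode buffer (pH 7.4) with 100 µM IBMX and 0.1% casein for 15 min at 37° C. Cells were lysed and cAMP measured by AlphaScreen. EC50 and efficacy relative to pramlintide came from 4PL curve fits.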
On to `CC[C@H](C)[C@@H](C(=O)N[C@@H](CC(C)C)C(=O)N[C@H](CO)C(=O)N[C@@H](CO)C(=O)N[C@H](C(=O)N[C@@H](CC(N)=O)C(=O)N[C@H](C(=O)NCC(=O)N[C@@H](CO)C(=O)N[C@@H](CC(N)=O)C(=O)N[C@H](C(=O)N1CCC[C@H]1C(N)=O)[C@@H](C)O)C(C)C)[C@@H](C)O)N(C)C(=O)[C@H](C)NC(=O)CN(C)C(=O)[C@H](Cc1ccccc1)NC(=O)[C@H](CC(N)=O)NC(=O)[C@H](CC(N)=O)NC(=O)[C@H](CO)NC(=O)[C@H](CO)NC(=O)[C@H](Cc1c[nH]cn1)NC(=O)[C@H](Cc1c[nH]cn1)NC(=O)[C@H](CC(C)C)NC(=O)[C@H](Cc1ccccc1)NC(=O)[C@H](CCC(=O)O)NC(=O)[C@H](C)NC(=O)[C@H](CC(C)C)NC(=O)[C@H](CCCNC(=N)N)NC(=O)[C@H](CCC(N)=O)NC(=O)[C@@H](NC(=O)[C@H](C)NC(=O)[C@@H]1CSSC[C@H](NC(=O)[C@H](CCCNC(=N)N)NC(=O)CC[C@H](NC(=O)CCCCCCCCCCCCCCCCCCC(=O)O)C(=O)O)C(=O)N[C@@H](CC(N)=O)C(=O)N[C@@H]([C@@H](C)O)C(=O)N[C@@H](C)C(=O)N[C@@H]([C@@H](C)O)C(=O)N1)[C@@H](C)O` [Compound 23, [19CD]-isoGlu-RC()NTATC()ATQRLAEFLHHSSNNF-Gly(Me)-A-Ile(Me)-L-DSer-STNVGSNTP-NH2] ({C20 diacid-γGlu}-RCNTATCATQRLAEFLHHSSNNF[Sar]A[NMeI]L[dS]STNVGSNTP-NH2; disulfide 2-7), for which the EC50 was found to be 0.074 nM.

The assay is the same for the next values; noted with them: cAMP induction in COS7 cells expressing hCTR2; average of a minimum of 3 determinations; read-out: hCTR2 EC50.
For the molecule `CC[C@H](C)[C@@H](C(=O)N[C@@H](CC(C)C)C(=O)N[C@@H](CO)C(=O)N[C@@H](CO)C(=O)N[C@H](C(=O)N[C@@H](CC(N)=O)C(=O)N[C@H](C(=O)NCC(=O)N[C@@H](CO)C(=O)N[C@@H](CC(N)=O)C(=O)N[C@H](C(=O)N1CCC[C@H]1C(N)=O)[C@@H](C)O)C(C)C)[C@@H](C)O)N(C)C(=O)[C@H](C)NC(=O)[C@H](C)NC(=O)[C@H](Cc1ccccc1)NC(=O)[C@H](CC(N)=O)NC(=O)[C@H](CC(N)=O)NC(=O)[C@H](CO)NC(=O)[C@H](CO)NC(=O)[C@H](Cc1c[nH]cn1)NC(=O)[C@H](Cc1c[nH]cn1)NC(=O)[C@H](CC(C)C)NC(=O)[C@H](Cc1ccccc1)NC(=O)[C@H](CCC(=O)O)NC(=O)[C@H](C)NC(=O)[C@H](CC(C)C)NC(=O)[C@H](CCCNC(=N)N)NC(=O)[C@H](CCC(N)=O)NC(=O)[C@@H](NC(=O)[C@H](C)NC(=O)[C@@H]1CSSC[C@H](NC(=O)[C@H](CCCNC(=N)N)NC(=O)CC[C@H](NC(=O)CCCCCCCCCCCCCCCCCCC(=O)O)C(=O)O)C(=O)N[C@@H](CC(N)=O)C(=O)N[C@@H]([C@@H](C)O)C(=O)N[C@@H](C)C(=O)N[C@@H]([C@@H](C)O)C(=O)N1)[C@@H](C)O` [Compound 16, [19CD]-isoGlu-RC()NTATC()ATQRLAEFLHHSSNNFAA-Ile(Me)-LSSTNVGSNTP-NH2] ({C20 diacid-γGlu}-RCNTATCATQRLAEFLHHSSNNFAA[NMeI]LSSTNVGSNTP-NH2; disulfide 2-7), the EC50 worked out at 0.076 nM.
On the same count and under the same terms, with `CC[C@H](C)[C@@H](C(=O)N[C@@H](CC(C)C)C(=O)N[C@@H](CO)C(=O)N[C@@H](CO)C(=O)N[C@H](C(=O)N[C@@H](CC(N)=O)C(=O)N[C@H](C(=O)NCC(=O)N[C@@H](CO)C(=O)N[C@@H](CC(N)=O)C(=O)N[C@H](C(=O)N1CCC[C@H]1C(N)=O)[C@@H](C)O)C(C)C)[C@@H](C)O)N(C)C(=O)[C@H](C)NC(=O)[C@@H](C)NC(=O)[C@H](Cc1ccccc1)NC(=O)[C@H](CC(N)=O)NC(=O)[C@H](CC(N)=O)NC(=O)[C@H](CO)NC(=O)[C@H](CO)NC(=O)[C@H](Cc1c[nH]cn1)NC(=O)[C@H](Cc1c[nH]cn1)NC(=O)[C@H](CC(C)C)NC(=O)[C@H](Cc1ccccc1)NC(=O)[C@H](CCC(=O)O)NC(=O)[C@H](C)NC(=O)[C@H](CC(C)C)NC(=O)[C@H](CCCNC(=N)N)NC(=O)[C@H](CCC(N)=O)NC(=O)[C@@H](NC(=O)[C@H](C)NC(=O)[C@@H]1CSSC[C@H](NC(=O)[C@H](CCCNC(=N)N)NC(=O)CC[C@H](NC(=O)CCCCCCCCCCCCCCCCCCC(=O)O)C(=O)O)C(=O)N[C@@H](CC(N)=O)C(=O)N[C@@H]([C@@H](C)O)C(=O)N[C@@H](C)C(=O)N[C@@H]([C@@H](C)O)C(=O)N1)[C@@H](C)O` [Compound 17, [19CD]-isoGlu-RC()NTATC()ATQRLAEFLHHSSNNF-DAla-A-Ile(Me)-LSSTNVGSNTP-NH2] ({C20 diacid-γGlu}-RCNTATCATQRLAEFLHHSSNNF[dA]A[NMeI]LSSTNVGSNTP-NH2; disulfide 2-7) the figure was 0.093 nM.
On the same count and under the same terms, the figure for `CC(C)C[C@H](NC(=O)[C@H](C)NC(=O)CN(C)C(=O)[C@H](Cc1ccccc1)NC(=O)[C@H](CC(N)=O)NC(=O)[C@H](CC(N)=O)NC(=O)[C@H](CO)NC(=O)[C@H](CO)NC(=O)[C@H](Cc1c[nH]cn1)NC(=O)[C@H](Cc1c[nH]cn1)NC(=O)[C@H](CC(C)C)NC(=O)[C@H](Cc1ccccc1)NC(=O)[C@H](CCC(=O)O)NC(=O)[C@H](C)NC(=O)[C@H](CC(C)C)NC(=O)[C@H](CCCNC(=N)N)NC(=O)[C@H](CCC(N)=O)NC(=O)[C@@H](NC(=O)[C@H](C)NC(=O)[C@@H]1CSSC[C@H](NC(=O)[C@H](CCCNC(=N)N)NC(=O)CC[C@H](NC(=O)CCCCCCCCCCCCCCCCCCC(=O)O)C(=O)O)C(=O)N[C@@H](CC(N)=O)C(=O)N[C@@H]([C@@H](C)O)C(=O)N[C@@H](C)C(=O)N[C@@H]([C@@H](C)O)C(=O)N1)[C@@H](C)O)C(=O)N[C@@H](CO)C(=O)N[C@@H](CO)C(=O)N[C@H](C(=O)N[C@@H](CC(N)=O)C(=O)N[C@H](C(=O)NCC(=O)N[C@@H](CO)C(=O)N[C@@H](CC(N)=O)C(=O)N[C@H](C(=O)N1CCC[C@H]1C(N)=O)[C@@H](C)O)C(C)C)[C@@H](C)O` [Compound 27, [19CD]-isoGlu-RC()NTATC()ATQRLAEFLHHSSNNF-Gly(Me)-ALSSTNVGSNTP-NH2] ({C20 diacid-γGlu}-RCNTATCATQRLAEFLHHSSNNF[Sar]ALSSTNVGSNTP-NH2; disulfide 2-7) is 0.14 nM; for `CC[C@H](C)[C@@H](C(=O)N[C@@H](CC(C)C)C(=O)N[C@@H](CO)C(=O)N[C@@H](CO)C(=O)N[C@H](C(=O)N[C@@H](CC(N)=O)C(=O)N[C@H](C(=O)NCC(=O)N[C@@H](CO)C(=O)N[C@@H](CC(N)=O)C(=O)N[C@H](C(=O)N1CCC[C@H]1C(N)=O)[C@@H](C)O)C(C)C)[C@@H](C)O)N(C)C(=O)CN(C)C(=O)[C@H](Cc1ccccc1)NC(=O)[C@H](CC(N)=O)NC(=O)[C@H](CC(N)=O)NC(=O)[C@H](CO)NC(=O)[C@@H](CO)NC(=O)[C@H](Cc1c[nH]cn1)NC(=O)[C@H](Cc1c[nH]cn1)NC(=O)[C@H](CC(C)C)NC(=O)[C@H](Cc1ccccc1)NC(=O)[C@H](CCC(=O)O)NC(=O)[C@H](C)NC(=O)[C@H](CC(C)C)NC(=O)[C@H](CCCNC(=N)N)NC(=O)[C@H](CCC(N)=O)NC(=O)[C@@H](NC(=O)[C@H](C)NC(=O)[C@@H]1CSSC[C@H](NC(=O)[C@H](CCCNC(=N)N)NC(=O)CC[C@H](NC(=O)CCCCCCCCCCCCCCCCCCC(=O)O)C(=O)O)C(=O)N[C@@H](CC(N)=O)C(=O)N[C@@H]([C@@H](C)O)C(=O)N[C@@H](C)C(=O)N[C@@H]([C@@H](C)O)C(=O)N1)[C@@H](C)O` [Compound 30, [19CD]-isoGlu-RC()NTATC()ATQRLAEFLHH-DSer-SNNF-Gly(Me)-Ile(Me)-LSSTNVGSNTP-NH2] ({C20 diacid-γGlu}-RCNTATCATQRLAEFLHH[dS]SNNF[Sar][NMeI]LSSTNVGSNTP-NH2; disulfide 2-7) it is 0.56 nM.
Same read-out and setting: with `CC[C@H](C)[C@@H](C(=O)N[C@@H](CC(C)C)C(=O)N[C@@H](CO)C(=O)N[C@@H](CO)C(=O)N[C@H](C(=O)N[C@@H](CC(N)=O)C(=O)N[C@H](C(=O)NCC(=O)N[C@@H](CO)C(=O)N[C@@H](CC(N)=O)C(=O)N[C@H](C(=O)N1CCC[C@H]1C(N)=O)[C@@H](C)O)C(C)C)[C@@H](C)O)N(C)C(=O)CN(C)C(=O)[C@H](Cc1ccccc1)NC(=O)[C@H](CC(N)=O)NC(=O)[C@H](CC(N)=O)NC(=O)[C@@H](CO)NC(=O)[C@H](CO)NC(=O)[C@H](Cc1c[nH]cn1)NC(=O)[C@H](Cc1c[nH]cn1)NC(=O)[C@H](CC(C)C)NC(=O)[C@H](Cc1ccccc1)NC(=O)[C@H](CCC(=O)O)NC(=O)[C@H](C)NC(=O)[C@H](CC(C)C)NC(=O)[C@H](CCCNC(=N)N)NC(=O)[C@H](CCC(N)=O)NC(=O)[C@@H](NC(=O)[C@H](C)NC(=O)[C@@H]1CSSC[C@H](NC(=O)[C@H](CCCNC(=N)N)NC(=O)CC[C@H](NC(=O)CCCCCCCCCCCCCCCCCCC(=O)O)C(=O)O)C(=O)N[C@@H](CC(N)=O)C(=O)N[C@@H]([C@@H](C)O)C(=O)N[C@@H](C)C(=O)N[C@@H]([C@@H](C)O)C(=O)N1)[C@@H](C)O` [Compound 34, [19CD]-isoGlu-RC()NTATC()ATQRLAEFLHHS-DSer-NNF-Gly(Me)-Ile(Me)-LSSTNVGSNTP-NH2] ({C20 diacid-γGlu}-RCNTATCATQRLAEFLHHS[dS]NNF[Sar][NMeI]LSSTNVGSNTP-NH2; disulfide 2-7) the figure was 0.26 nM.
